In data set [1] the test system is CD44 hyaluronic acid receptor. Briefly: Immunohistochemical demonstration of the hyaluronic acid receptor (CD44) in human skin explants kept alive. The data set is classed as cell-based. The note with it: glucosamine 5 μM in culture medium, D4, scores 0 to 4, control skin 3.4 ± 0.7. The protocol:
For this, a method of culturing was used which allows human skin to be kept alive under metabolic conditions close to in vivo (individuals aged between 50 and 60).
The glucosamine in aqueous solution was added to the culture medium, at the plasma concentration (5 μM), thus making it possible to simulate oral and/or parenteral administration.
Skin fragments were obtained after plastic surgery (mammary or abdominal plasties) from menopausal women (8 different donors from female individuals aged between 50 and 60). The fragments are placed in inserts which are themselves suspended above culture wells. Culture medium is added to the bottom of the wells, the medium passing by slow diffusion between the two compartments by means of a porous membrane (12 μm).
From D0 to D10, glucosamine was added to the culture medium of the skin fragments, every day. For the CD44 analysis, a series of skin samples was taken at D4. A second series was taken at D10 for assaying the collagen synthesis.
The immunodetection was carried out using the CSA kit (DAKO) and visualized in red with AEC (3-amino-9-ethylcarbazole).
Semi-quantitative scores made it possible to specify the intensity of the immunolabeling (scores 0 to 4, from negative to intense). […]

For a further data set, the system named is Human fibroblasts. Kind of data set: Cytotoxicity on fibroblasts (number of cells by DNA fluorimetry). The data set is classed as cell-based. The note with it: for DNA (number of cells): 48 h, control 2.37 ± 0.33. The protocol: (§1) Human fibroblasts, harvested by growth from skin explants from a normal young donor, are routinely cultured in DMEM containing 10% of fetal bovine serum (FCS), ascorbic acid (50 μg/ml), penicillin-streptomycin (100 U/ml), referred to in the rest of the report as DMEM-FCS. They are amplified in culture by trypsinizing subconfluent cultures and dividing the dishes 1 in 3. The cultures are used up until passage 14. They are regularly tested for the absence of mycoplasma.
(§2) The glucosamine sulfate is provided in the form of (C6H14NO5)2 S04.2KCl (glucosamine.SO4 titer: 74%) brand Bioiberica, code F0379, Batch 4/0001. A stock solution at 13.6 mg/ml of distilled water is sterilized by filtration through an Acrodisc, and conserved at −20° C.
The fibroblasts are seeded into 24-well multiwells at 25 or 50×10^3 cells/well in DMEM-FCS. After 6 h of attachment, 20 μl of gradual dilutions of the active agents to be tested are added to the cultures. After 24 h of contact, the medium and the active agents are renewed. After 48 h of culture, the medium is removed, and the cell layers are rinsed twice with physiological saline. The number of cells is determined by measuring DNA by the fluorimetric technique using the bisbenzimide reagent in a “Gemini” fluorimeter. The cultures are prepared in triplicate and the measurements are carried out on each culture in duplicate. The control cultures receive the solvent alone.
The toxicity of glucosamine sulfate is tested at 0.5, 1, 5, 10, 20 and 40× the plasma concentration, i.e. 3.4, 6.8, 34, 68, 136 and 272 μg/ml of culture medium.

The test system of the next data set is MMP3. Kind of data set: MMP3 mRNA by RT-PCR, human dermal fibroblasts in a monolayer on plastic. The data set is classed as cell-based. To be noted: for MMP3 mRNA: control 1745 ± 31. How it is done:
as §1, §2
The fibroblasts are seeded in DMEM-FCS in a proportion of 2.10^5 cells/disk of 6 cm. After 18 h of attachment, the culture medium is renewed with DMEM-FCS containing:
a) glucosamine sulfate alone • [plasma concentration] 2×(n=2) • 5× (n=2) • 10× (n=2) • control (n=3)
The total amount of RNA present in the solution that will be used to carry out the specific mRNA measurements is determined by measuring the 28S ribosomal RNA. The RNA solution is aliquoted and frozen at −80° C. until the specific mRNAs are assayed by RT-PCR. The mRNA results are expressed in arbitrary units (AU) per unit of 28S. The measurements are carried out in triplicate on two or three separate cultures. • MMP3: stromelysin 1 responsible for the degradation of proteoglycans and of other extracellular matrix constituents and activator of MMP 1

Another data set has as its system fibroblasts. Briefly: Retracting collagen gel (contractile properties of fibroblasts). The data set is classed as cell-based, human. How it is done: Human fibroblasts, harvested by growth from skin explants from a normal young donor, are routinely cultured in DMEM containing 10% of fetal bovine serum (FCS), ascorbic acid (50 μg/ml), penicillin-streptomycin (100 U/ml), referred to in the rest of the report as DMEM-FCS. They are amplified in culture by trypsinizing subconfluent cultures and dividing the dishes 1 in 3. The cultures are used up until passage 14. They are regularly tested for the absence of mycoplasma. A sterile solution of purified native collagen is mixed with a suspension of fibroblasts, DMEM-FCS medium and the test products in bacteriological dishes. The mixture is brought to 37° C., this resulting in polymerization of the collagen and the formation of a three-dimensional collagen gel trapping the fibroblasts and floating in the culture medium. The cells attached to the collagen fibers and, under the contractile activity of the cytoskeleton of the fibroblasts, the gel is gradually retracted. This gel is commonly referred to as “Retracting Collagen Gel” or RCG. […]

A further data set has as its system Vimentin. Briefly: Example 4 clinical study, skin biopsy mRNA by RT-PCR: vimentin. The note with it: oral, equivalent to 250 mg of glucosamine, 8 weeks, women aged 50 to 65, n=8; placebo 1.27 ± 0.33. The data set is classed as in vivo, human. The protocol:
(§3) Restrictive randomized monocentric double-blind study versus placebo. Fifteen women, aged 50 to 65, were given, as a supplement, for 8 weeks, either a placebo (n=7) or glucosamine sulfate (n=8) equivalent to 250 mg of glucosamine (GLU).
(§4) A skin biopsy 3 mm in diameter (inner face of the arm) was taken before the beginning (T0) and at the end of the 8 weeks of supplementation (T8).
(§5) The total RNA contained in the skin samples was extracted and purified by means of an Ambion Ribo Pure Kit.
(§6) The analysis of the specific dermal markers was carried out by RT-PCR as previously described (Nusgens et al, JID, 116: 853-859, 2001). All the results are expressed in arbitrary units relative to the amount of 28S rRNA.
(§7) The effects of the supplementation (placebo or GLU) were then analyzed by comparing, for each volunteer, the individual expression of the mRNAs at T8 and at T0. A […] ratio was thus calculated. The means of each ratio of the two groups were compared using a Student's test for paired samples.

For a further data set, the system named is Decorin. Kind of data set: Example 4 clinical study, skin biopsy mRNA by RT-PCR: decorin. The data set is classed as in vivo, human. The note with it: oral, equivalent to 250 mg of glucosamine, 8 weeks, women aged 50 to 65, n=8; placebo 1.11 ± 0.22. How it is done:
as §3, §4, §5, §6, §7

A further data set concerns Fibromodulin. Kind of data set: Example 4 clinical study, skin biopsy mRNA by RT-PCR: fibromodulin. The data set is classed as in vivo, human. The note with it: oral, equivalent to 250 mg of glucosamine, 8 weeks, women aged 50 to 65, n=8; placebo 1.12 ± 0.16. The protocol:
as §3, §4, §5, §6, §7

In a further data set the test system is Biglycan. Briefly: Example 4 clinical study, skin biopsy mRNA by RT-PCR: biglycan. The data set is classed as in vivo, human. To be noted: oral, equivalent to 250 mg of glucosamine, 8 weeks, women aged 50 to 65, n=8; placebo 1.10 ± 0.18. The protocol: as §3, §4, §5, §6, §7
The test system of a further data set is Hyaluron synthase. Kind of data set: Example 4 clinical study, skin biopsy mRNA by RT-PCR: hyaluron synthase. The data set is classed as in vivo, human. To be noted: oral, equivalent to 250 mg of glucosamine, 8 weeks, women aged 50 to 65, n=8; placebo 1.51 ± 0.73. The protocol:
as §3, §4, §5, §6, §7

Structures can show the parent of a compound that is named as a salt.

With `N[C@@H](C=O)[C@@H](O)[C@H](O)[C@H](O)CO` [glucosamine sulfate], the “CD44 labeling Topography score (mean semi-quantitative score)” value in data set [1] worked out at 3.7 ± 0.5. Also, the “number of cells (rate of proliferation of the fibroblasts)” value with Human fibroblasts (34 μg/ml, p=0.04) is listed as “increase in the number of cells”. The “DNA (number of cells)” value in the data set on Human fibroblasts (0.5x plasma concentration, 3.4 μg/ml) was 2.81 ± 0.41 µg/mL; with Human fibroblasts (1x plasma concentration, 6.8 μg/ml), 2.56 ± 0.37 µg/mL; in the data set with Human fibroblasts (5x plasma concentration, 34 μg/ml), 2.89 ± 0.23 µg/mL; in the data set with Human fibroblasts (10x plasma concentration, 68 μg/ml), 2.61 ± 0.26 µg/mL; in the data set with Human fibroblasts (20x plasma concentration, 136 μg/ml) it was 2.52 ± 0.18 µg/mL; with Human fibroblasts (40x plasma concentration, 272 μg/ml), 2.50 ± 0.32 µg/mL. The cytotoxic effect result in the data set on Human fibroblasts (even at concentrations representing 40× the plasma concentration) is “No cytotoxic effect”. Besides, the “MMP3 mRNA” value with MMP3 (2x plasma concentration) is 1261 ± 120 UA/28S; with MMP3 (5x plasma concentration) it was 1162 ± 22 UA/28S; in the data set on MMP3 (10x plasma concentration) it was 1060 ± 375 UA/28S. Also, the “level of MMP3 mRNA (in words)” value in the data set with MMP3 (2x, 5x, 10x plasma concentration, p<0.005) is on record as “significant reduction”. The “reduction in the diameter of the collagen gel (retraction)” value in the data set on fibroblasts (2×, 5× and 10× the plasma concentration, 20 000 fibroblasts, 46 h, control 19 mm) is recorded as 22 mm. For the same compound, in the data set on fibroblasts (plasma concentration, 25 000 fibroblasts, 18 hours, controls 21 mm), the “reduction in diameter of the collagen gel” value was found to be 23 mm. The “Vimentin mRNA (T8/T0)” value with Vimentin was “significantly increases”. The “Decorin mRNA (T8/T0)” value in the data set with Decorin was “significantly increases”. In addition, the “Fibromodulin mRNA (T8/T0)” value in the data set on Fibromodulin is “significantly increases”. In the data set with Biglycan, the “Biglycan mRNA (T8/T0)” value is reported as “significantly increases”. Further, the “Hyaluron synthase mRNA (T8/T0)” value in the data set on Hyaluron synthase was “significantly increases”.

The values are drawn from patent publication US20100323984A1, “COSMETIC ORAL AND/OR PARENTERAL USE OF GLUCOSAMINE OPTIONALLY IN COMBINATION WITH AT LEAST ONE POLYPHENOL COMPOUND, AND CORRESPONDING COMPOSITION” (LABORATOIRES INNEOV, priority 2006, published 2010).
